The target of one data set is Cathepsin S (Homo sapiens, UniProt P25774). As to the kind of experiment: Assay Procedure for Cathepsin S (fluorogenic substrate CBZ-Val-Val-Arg-AMC). In kind it is biochemical. The note with it: r Cathepsin S, pH 6.5, 10 min preincubation; read-out: CatS IC50. As to the method: Assay Procedure for Cathepsin S
To 170 μl of enzyme-buffer mixture (r Cathepsin S diluted to give approx. 30 F unis/min, buffer: 100 mM sodium phosphate, 1 mM EDTA, 5 mM DTT ,0.01% Brij, pH 6.5.), 10 μl of inhibitor (dissolved in 100% DMSO) was added.
After 10 min of incubation at room temperature 20 μl of 1.2 mM substrate (CBZ-Val-Val-Arg-AMC, dissolved in DMSO) was added to initiate reaction. Reading is followed for 10 min at the Fluoroscan II plate reader (excitation at 380 nm, emission at 460 nm).
(§1) A plot of percentage of inhibition vs inhibitor concentration is obtained, and the IC50 is determined using a linear regression calculation (concentration of inhibitor which will give 50% inhibition).

The target of a further data set is Cathepsin B (Homo sapiens, UniProt P07858). The experiment in a line: Assay Procedure for Cathepsin B (fluorogenic substrate N-CBZ-Phe-Arg-AMC). In kind it is biochemical. The note with it: r Cathepsin B, pH 5.1, 10 min preincubation; read-out: CatB IC50. Here is the method:
Assay Procedure for Cathepsin B
To 170 μl of enzyme-buffer mixture (r Cathepsin B diluted to give approx. 30 F units/min, buffer: 56 mM Na acetate, 1.124 mM EDTA, 10 mM DTT, pH 5.1), 10 μl of inhibitor (dissolved in 100% DMSO ) was added.
After 10 min of incubation at mom temperature 20 μl of 5 mM substrate (N-CBZ-Phe-Arg-AMC, dissolved in DMSO ) was added to initiate reaction. Reading is followed for 10 min at the Fluoroscan reader (excitation at 380 nm, emission at 460 nm).
as §1

The target of a further data set is T1, Cathepsin K (Homo sapiens, UniProt P43235).
T1 sequence (P43235 115-329): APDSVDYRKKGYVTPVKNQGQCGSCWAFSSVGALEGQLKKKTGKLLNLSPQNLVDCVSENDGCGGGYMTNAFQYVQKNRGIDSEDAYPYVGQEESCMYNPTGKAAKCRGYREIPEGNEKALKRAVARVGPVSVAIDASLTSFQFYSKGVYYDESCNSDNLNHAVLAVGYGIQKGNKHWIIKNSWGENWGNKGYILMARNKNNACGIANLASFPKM
As to the kind of experiment: Assay Procedure for Cathepsin K (fluorogenic substrate N-CBZ-Phe-Arg-AMC). In kind it is biochemical. The note with it: r Cathepsin K, pH 5.5, 10 min preincubation; read-out: CatK IC50. As to the method: Assay Procedure for Cathepsin K
To 170 μl of enzyme-buffer mixture (r Cathepsin K diluted to give approx. 30 F units/min. Buffer: 100 mM sodium acetate, 5 mM EDTA, 20 mM L-Cysteine, 0.01% Brij , pH 5.5), 10 μl of inhibitor (dissolved in 100% DMSO) was added.
After 10 min of incubation at room temperature 20 μl of 2.7 mM substrate (N-CBZ-Phe-Arg-AMC, dissolved in DMSO) was added to initiate reaction. Reading is followed for 10 min at the Fluoroscan II plate reader (excitation at 380 nm, emission at 460 nm).
as §1

The next data set addresses Cathepsin L (Homo sapiens, UniProt P07711). The experiment in a line: Assay Procedure for Cathepsin L (fluorogenic substrate N-CBZ-Phe-Arg-AMC). In kind it is biochemical. The note with it: r Cathepsin L, pH 5.0, 10 min preincubation; read-out: CatL IC50. As to the method: Assay Procedure for Cathepsin L
To 170 μl of an enzyme-buffer mixture (enzyme: r Cathepsin L, diluted to give 25 F units/min, buffer: 58.8 mM Na citrate, 1.18 mM EDTA, 235 mM sodium chloride, 10 mM DTT, pH 5.0), 10 μl of an inhibitor (dissolved in 100% DMSO ) was added.
After 10 min of incubation at room temperature 20 μl of 1 mM substrate (N-CBZ-Phe-Arg-AMC) dissolved in DMSO was added to initiate the reaction. Reading was for 10 min at the Fluoroscan reader (excitation at 380 nm, emission at 460 nm).
as §1

The structures appear in SMILES notation. pIC50: −log10 of the molar value. Some results are limits rather than exact numbers.

Usually pIC50 stands for the IC50 on a negative log10 scale, so that one unit is a factor of ten. In general, melting point refers to the temperature of the solid-liquid transition.

Chain of Cathepsin S (P25774 115-331, species assumed): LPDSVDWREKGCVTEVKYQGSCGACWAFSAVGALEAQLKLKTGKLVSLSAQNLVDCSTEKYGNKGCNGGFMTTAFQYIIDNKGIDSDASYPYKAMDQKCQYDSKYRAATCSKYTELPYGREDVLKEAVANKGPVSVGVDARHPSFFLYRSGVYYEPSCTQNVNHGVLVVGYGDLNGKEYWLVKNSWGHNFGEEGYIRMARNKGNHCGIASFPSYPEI
Chain of Cathepsin L (P07711 114-333, species assumed): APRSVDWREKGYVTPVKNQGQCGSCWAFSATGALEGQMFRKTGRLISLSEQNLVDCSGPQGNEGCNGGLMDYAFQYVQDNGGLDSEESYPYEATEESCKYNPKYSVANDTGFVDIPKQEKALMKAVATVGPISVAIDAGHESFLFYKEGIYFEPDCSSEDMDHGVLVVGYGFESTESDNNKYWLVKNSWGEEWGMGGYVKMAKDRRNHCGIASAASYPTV

Turning to `CC(=O)O[C@@H]1NC(=O)[C@@]1(C)NC(=O)[C@H](Cc1ccccc1)NC(=O)CCc1ccccc1` [Example 4, (3S,4S)-3-[2S-2-(3-phenylpropionyl)-amino-2-benzyl]-acetamido-3-methyl-4-acetoxy azetidine-2-one], the melting point was 163 to 164 °C. Also, the negative-log IC50 (pIC50) on Cathepsin S is 7.01. On Cathepsin B, the pIC50 is 5.00. The pIC50 on Cathepsin K is 5.94. Further, on Cathepsin L, the pIC50 is 5.72.
On the same counts, the results for `CC(C)(C)OC(=O)N[C@@H](Cc1cccnc1)C(=O)N[C@]1(C)C(=O)N[C@H]1Oc1ccccc1` [Example 12] are 109 to 110 °C, 5.74, 4.95, 5.11 and 5.64.
As to `C[C@@]1(NC(=O)[C@H](CC2CCCCC2)NC(=O)CCCCCNC(=NC(=O)OCc2ccccc2)NC(=O)OCc2ccccc2)C(=O)N[C@H]1Oc1ccccc1` [Example 7, (3S,4S)-3-[2S-2-(6-N, N-dibenzyloxycarbonylguanidinohexanoyl)-amino-2-cyclohexylmethyl]-acetamido-3-methyl-4-phenoxy-azetidine-2-one], the pIC50 at Cathepsin S is 7.70; on Cathepsin B, 4.58; on Cathepsin K, 4.49; at Cathepsin L it was 4.49.
As to `CC(C)(C)OC(=O)N[C@@H](Cc1cccnc1)C(=O)N[C@]1(C)C(=O)N[C@@H]1Oc1ccccc1` [Example 14], the negative logarithm of the IC50 (pIC50) is 7.30 at Cathepsin S, 6.44 at Cathepsin B, 5.87 at Cathepsin K and 6.35 on Cathepsin L.
In the same order, the values of `C[C@@]1(NC(=O)[C@H](Cc2ccccc2)NC(=O)CCc2ccccc2)C(=O)N[C@H]1Oc1cccc(C(=O)OC(c2ccccc2)c2ccccc2)c1` [Example 18, (3S,4S)-3-[2S-2-(3-phenylpropionyl)-amino-2-benzyl]-acetamido-3-methyl-4-(3-diphenylmethoxycarbonyl)-phenoxy azetidine-2-one] are 6.16, less than 4.44, 5.14 and 5.13.

For the origin of these results see patent publication US6569847B1, “Substituted azetidin-2-ones as cysteine protease inhibitors” (NAEJA Pharmaceuticals Inc., priority 1999, dated 2003).
